Test results taken from patent US20220411419A1, “SMALL MOLECULE MODULATORS OF MHC-I” (RetroVirox, Inc., priority 2018, published 2022).

How the values were obtained:
[1] = test system: downmodulation of MHC-I molecules expressed on the surface of HIV infected SupT1 cells; test: cells; conditions: for EC50: Human immunodeficiency virus 1, SUP-T1, read-out: EC50 for inhibition of MHC-I downmodulation utilizing the R1 parameter; for activity at 100 µM: Human immunodeficiency virus 1, SUP-T1, read-out: R1 @ 100 μM (R1 value for MHC-I downmodulation as % of the vehicle control)
in vitro = conditions: human, uninfected SupT1 cells

What does the source list for `CC1(C)Cc2cccc(OCC(=O)Nc3nc4c(Br)cccc4s3)c2O1` [Compound 1, N-(4-bromobenzo[d]thiazol-2-yl)-2-((2,2-dimethyl-2,3-dihydrobenzofuran-7-yl)oxy)acetamide]?
EC50 [1]: 0.12 µM; CC50 at 48 h (in vitro): > 90 µM

What does the source list for `Cc1ccc(NC(=O)COc2cccc3c2OC(C)(C)C3)nn1` [Compound 2, 2-((2,2-Dimethyl-2,3-dihydrobenzofuran-7-yl)oxy)-N-(6-methylpyridazin-3-yl)acetamide]?
EC50 [1]: 2.1 µM; CC50 at 48 h (in vitro): > 90 µM

Which EC50 [1] does the source give for `CC1(C)Cc2cccc(OCC(=O)Nc3nc4c(s3)CCCCC4)c2O1` [Compound 3, 2-((2,2-Dimethyl-2,3-dihydrobenzofuran-7-yl)oxy)-N-(5,6,7,8-tetrahydro-4H-cyclohepta[d]thiazol-2-yl)acetamide] here?
Its EC50 is 0.2 µM.

What about the CC50 at 48 h (in vitro) of the same compound?
Its CC50 at 48 h is > 100 µM.

For `CC1(C)Cc2cccc(OCC(=O)Nc3nc4c(F)c(F)c(F)cc4s3)c2O1` [Compound 4, 2-((2,2-Dimethyl-2,3-dihydrobenzofuran-7-yl)oxy)-N-(4,5,6-trifluorobenzo [d]thiazol-2-yl)acetamide], which EC50 [1] is on record?
The EC50 was 0.068 µM.

And the CC50 at 48 h (in vitro)?
The CC50 at 48 h was > 100 µM.

For `CC1(C)Cc2cccc(OCC(=O)Nc3nc(C4CC4)cs3)c2O1` [Compound 5, N-(4-Cyclopropylthiazol-2-yl)-2-((2,2-dimethyl-2,3-dihydrobenzofuran-7-yl)oxy)acetamide], which EC50 [1] is on record?
The EC50 was 0.55 µM.

And the CC50 at 48 h (in vitro)?
The CC50 at 48 h was > 100 µM.

What does the source list for `CC1(C)Cc2cccc(OCC(=O)Nc3nc4c(F)c(F)ccc4s3)c2O1` [Compound 6, N-(4,5-Difluorobenzo[d]thiazol-2-yl)-2-((2,2-dimethyl-2,3-dihydrobenzofuran-7-yl)oxy)acetamide]?
EC50 [1]: 6.3 µM; CC50 at 48 h (in vitro): 36 µM

With `CC1(C)Cc2cccc(OCC(=O)Nc3ccccn3)c2O1` [Compound 7, 2-((2,2-Dimethyl-2,3-dihydrobenzofuran-7-yl)oxy)-N-(pyridin-2-yl) acetamide] as the compound, how does the EC50 [1] read?
The EC50 was > 25 µM.

And the activity at 100 µM [1]?
The activity at 100 µM was 34%.

What about the CC50 (in vitro) of the same compound?
The CC50 was > 100 µM.

What about the CC50 at 48 h (in vitro) of the same compound?
The CC50 at 48 h was > 100 µM.

For `Cc1cccc(NC(=O)COc2cccc3c2OC(C)(C)C3)n1` [Compound 8, 2-((2,2-Dimethyl-2,3-dihydrobenzofuran-7-yl)oxy)-N-(6-methylpyridin-2-yl) acetamide], which EC50 [1] is on record?
Its EC50 is 23 µM.

What about the CC50 at 48 h (in vitro) of the same compound?
The CC50 at 48 h was > 100 µM.

Which EC50 [1] does the source give for `Cc1cnc(NC(=O)COc2cccc3c2OC(C)(C)C3)cn1` [Compound 9, 2-((2,2-Dimethyl-2,3-dihydrobenzofuran-7-yl)oxy)-N-(5-methylpyrazin-2-yl)acetamide] here?
Its EC50 is 0.5 µM.

What about the CC50 at 48 h (in vitro) of the same compound?
The CC50 at 48 h was > 125 µM.

Which results are given for `CC1(C)Cc2cccc(OCC(=O)Nc3cncc4ccccc34)c2O1` [Compound 10, 2-((2,2-Dimethyl-2,3-dihydrobenzofuran-7-yl)oxy)-N-(isoquinolin-4-yl) acetamide]?
EC50 [1]: > 25 µM; activity at 100 µM [1]: 46%; CC50 (in vitro): > 100 µM; CC50 at 48 h (in vitro): > 100 µM

With `Cc1ccc(NC(=O)COc2cccc3c2OC(C)(C)C3)cn1` [Compound 11, 2-((2,2-Dimethyl-2,3-dihydrobenzofuran-7-yl)oxy)-N-(6-methylpyridin-3-yl) acetamide] as the compound, how does the EC50 [1] read?
The EC50 was > 25 µM.

And the activity at 100 µM [1]?
The activity at 100 µM was 48%.

What about the CC50 (in vitro) of the same compound?
Its CC50 is > 100 µM.

And the CC50 at 48 h (in vitro)?
Its CC50 at 48 h is > 100 µM.

For `CC1(C)Cc2cccc(OCC(=O)Nc3ccc(C(F)(F)F)nc3)c2O1` [Compound 12, 2-((2,2-Dimethyl-2,3-dihydrobenzofuran-7-yl)oxy)-N-(6-(trifluoromethyl)pyridin-3-yl)acetamide], which EC50 [1] is on record?
The EC50 was > 25 µM.

What about the activity at 100 µM [1] of the same compound?
Its activity at 100 µM is 51%.

What about the CC50 (in vitro) of the same compound?
The CC50 was > 100 µM.

What about the CC50 at 48 h (in vitro) of the same compound?
Its CC50 at 48 h is > 100 µM.

Which results are given for `CC1(C)Cc2cccc(OCC(=O)Nc3cccc4nccnc34)c2O1` [Compound 13, 2-((2,2-Dimethyl-2,3-dihydrobenzofuran-7-yl)oxy)-N-(quinoxalin-5-yl) acetamide]?
EC50 [1]: > 25 µM; activity at 100 µM [1]: 63%; CC50 (in vitro): > 100 µM; CC50 at 48 h (in vitro): > 100 µM

For `CC1(C)Cc2cccc(OCC(=O)Nc3cccc4cnccc34)c2O1` [Compound 14, 2-((2,2-Dimethyl-2,3-dihydrobenzofuran-7-yl)oxy)-N-(isoquinolin-5-yl) acetamide], which EC50 [1] is on record?
Its EC50 is > 25 µM.

What about the activity at 100 µM [1] of the same compound?
The activity at 100 µM was 18%.

What about the CC50 (in vitro) of the same compound?
The CC50 was > 100 µM.

And the CC50 at 48 h (in vitro)?
Its CC50 at 48 h is > 100 µM.

With `CC1(C)Cc2cccc(OCC(=O)Nc3ncnc4ccccc34)c2O1` [Compound 15, 2-((2,2-Dimethyl-2,3-dihydrobenzofuran-7-yl)oxy)-N-(quinazolin-4-yl) acetamide] as the compound, how does the EC50 [1] read?
Its EC50 is > 25 µM.

What about the activity at 100 µM [1] of the same compound?
The activity at 100 µM was 14%.

What about the CC50 (in vitro) of the same compound?
The CC50 was > 100 µM.

And the CC50 at 48 h (in vitro)?
Its CC50 at 48 h is > 100 µM.

What does the source list for `CC1(C)Cc2cccc(OCC(=O)Nc3ccc4ccccc4n3)c2O1` [Compound 16, 2-((2,2-Dimethyl-2,3-dihydrobenzofuran-7-yl)oxy)-N-(quinolin-2-yl) acetamide]?
EC50 [1]: 10 µM; CC50 at 48 h (in vitro): > 90 µM

For `CC1(C)Cc2cccc(OCC(=O)Nc3cc4ccccc4cn3)c2O1` [Compound 17, 2-((2,2-Dimethyl-2,3-dihydrobenzofuran-7-yl)oxy)-N-(isoquinolin-3-yl) acetamide], which EC50 [1] is on record?
Its EC50 is 22 µM.

And the CC50 at 48 h (in vitro)?
The CC50 at 48 h was > 125 µM.

What does the source list for `Cc1cc(NC(=O)COc2cccc3c2OC(C)(C)C3)ncc1Cl` [Compound 18, N-(5-Chloro-4-methylpyridin-2-yl)-2-((2,2-dimethyl-2,3-dihydrobenzofuran-7-yl)oxy)acetamide]?
EC50 [1]: 18 µM; CC50 at 48 h (in vitro): > 125 µM

With `Cc1nc(NC(=O)C(C)(C)Oc2cccc3c2OC(C)(C)C3)sc1C` [Compound 19, 2-((2,2-Dimethyl-2,3-dihydrobenzofuran-7-yl)oxy)-N-(4,5-dimethylthiazol-2-yl)-2-methylpropanamide] as the compound, how does the EC50 [1] read?
Its EC50 is > 30 µM.

And the activity at 100 µM [1]?
The activity at 100 µM was 20%.

And the CC50 (in vitro)?
The CC50 was > 90 µM.

What about the CC50 at 48 h (in vitro) of the same compound?
Its CC50 at 48 h is > 90 µM.

Which EC50 [1] does the source give for `CC1(C)Cc2cccc(OC(C)(C)C(=O)Nc3nc4ccccc4s3)c2O1` [Compound 20, N-(Benzo[d]thiazol-2-yl)-2-((2,2-dimethyl-2,3-dihydrobenzofuran-7-yl)oxy)-2-methylpropanamide] here?
The EC50 was > 30 µM.

And the activity at 100 µM [1]?
Its activity at 100 µM is 56%.

What about the CC50 (in vitro) of the same compound?
Its CC50 is > 90 µM.

What about the CC50 at 48 h (in vitro) of the same compound?
Its CC50 at 48 h is > 90 µM.

Which EC50 [1] does the source give for `CC1(C)Cc2cccc(OCC(=O)Nc3nc(C(F)(F)F)cs3)c2O1` [Compound 21, 2-((2,2-dimethyl-2,3-dihydrobenzofuran-7-yl)oxy)-N-(4-(trifluoromethyl)thiazol-2-yl)acetamide] here?
Its EC50 is 0.56 µM.

What about the CC50 at 48 h (in vitro) of the same compound?
The CC50 at 48 h was > 100 µM.

With `CC1(C)Cc2cccc(OCC(=O)Nc3ccc(C#N)cn3)c2O1` [Compound 22, N-(5-Cyanopyridin-2-yl)-2-((2,2-dimethyl-2,3-dihydrobenzofuran-7-yl)oxy) acetamide] as the compound, how does the EC50 [1] read?
The EC50 was 25 µM.

What about the CC50 at 48 h (in vitro) of the same compound?
Its CC50 at 48 h is > 100 µM.

For `CC1(C)Cc2cccc(OCC(=O)Nc3nc(C(C)(C)C)cs3)c2O1` [Compound 23, N-(4-(tert-Butyl)thiazol-2-yl)-2-((2,2-dimethyl-2,3-dihydrobenzofuran-7-yl)oxy)acetamide], which EC50 [1] is on record?
Its EC50 is 4.4 µM.

What about the CC50 at 48 h (in vitro) of the same compound?
Its CC50 at 48 h is > 100 µM.

For `CC1(C)Cc2cccc(OCC(=O)Nc3ccc(Cl)nn3)c2O1` [Compound 24, N-(6-Chloropyridazin-3-yl)-2-((2,2-dimethyl-2,3-dihydrobenzofuran-7-yl)oxy)acetamide], which EC50 [1] is on record?
The EC50 was 4.5 µM.

What about the CC50 at 48 h (in vitro) of the same compound?
The CC50 at 48 h was > 100 µM.

With `CC1(C)Cc2cccc(OCC(=O)Nc3ccc(Br)nn3)c2O1` [Compound 25, N-(6-Bromopyridazin-3-yl)-2-((2,2-dimethyl-2,3-dihydrobenzofuran-7-yl)oxy)acetamide] as the compound, how does the EC50 [1] read?
The EC50 was 3.6 µM.

What about the CC50 at 48 h (in vitro) of the same compound?
The CC50 at 48 h was > 100 µM.
